Laboratory results from PubChem BioAssay AID192 (DTP/NCI, 2004).
“And” between values parts separate entries of the source, which are not always exact repeats. Identical values can stand only once. Toxic doses and inconclusive results are not listed.

Tested on: BDF1 mice, B16 melanoma ip, median survival T/C
Assay: NCI In Vivo Anticancer Drug Screen. Data for tumor model B16 Melanoma (intraperitoneal) in B6D2F1 (BDF1) mice
Conditions: endpoint: median survival time, higher = longer survival
In short: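 Each result divides a survival or tumor-size measurement in the compound-treated group by the same measurement in the vehicle group.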

[1] = dose: 25.0 mg/kg/injection, schedule: Q01DX009 (ip), vehicle: saline with Tween-80
[2] = dose: 50.0 mg/kg/injection, schedule: Q01DX009 (ip), vehicle: saline with Tween-80
[3] = dose: 100.0 mg/kg/injection, schedule: Q01DX009 (ip), vehicle: saline with Tween-80
[4] = dose: 100.0 mg/kg/injection, schedule: Q01DX009 (ip), vehicle: Klucel (hydroxypropylcellulose) (HPC)
[5] = dose: 400.0 mg/kg/injection, schedule: Q01DX009 (ip), vehicle: Klucel (hydroxypropylcellulose) (HPC)
[6] = dose: 200.0 mg/kg/injection, schedule: Q01DX009 (ip), vehicle: Klucel (hydroxypropylcellulose) (HPC)

CCCc1ccc(OC)cc1
T/C [1]: 97 % of control
T/C [2]: 105 % of control
T/C [3]: 90 % of control

COC(=O)c1ccc(Cl)nc1
T/C [4]: 94 % of control
T/C [5]: 94 % of control

COc1cc(O)c2c(O)c3c(c4c2c1[C@]1(C4)C(C)=CCCC1(C)C)[C@H](O)[C@@]1(O)CC(=O)C(C(N)=O)=C(O)[C@@]1(O)C3=O
T/C (dose: 6.0 mg/kg/injection, schedule: Q01DX009 (ip), vehicle: saline with Tween-80): 97 % of control
T/C (dose: 6.25 mg/kg/injection, schedule: Q04DX003 (ip), vehicle: saline with Tween-80): 112 % of control
T/C (dose: 12.5 mg/kg/injection, schedule: Q04DX003 (ip), vehicle: saline with Tween-80): 116 % of control
T/C (dose: 25.0 mg/kg/injection, schedule: Q04DX003 (ip), vehicle: saline with Tween-80): 121 % of control

O=c1[nH]c2cc(Cl)ccc2c(CCl)c1Cl
T/C [1]: 88 % of control and 95 % of control
T/C [2]: 88 % of control and 95 % of control
T/C [3]: 93 % of control and 100 % of control

CN(C)CCOc1ccccc1Cc1ccccc1
T/C (dose: 12.5 mg/kg/injection, schedule: Q01DX009 (ip), vehicle: saline): 121 % of control
T/C (dose: 25.0 mg/kg/injection, schedule: Q01DX009 (ip), vehicle: saline): 106 % of control and 107 % of control
T/C (dose: 50.0 mg/kg/injection, schedule: Q01DX009 (ip), vehicle: saline): 95 % of control and 100 % of control
T/C (dose: 100.0 mg/kg/injection, schedule: Q01DX009 (ip), vehicle: saline): 105 % of control
T/C (dose: 200.0 mg/kg/injection, schedule: Q01DX009 (ip), vehicle: saline): 94 % of control

COc1cccc(N2C(=O)CSC2=S)c1
T/C [4]: 93 % of control
T/C [6]: 90 % of control

CNC1=C(N2CC2C)C(=O)C(NC)=C(N2CC2C)C1=O (configuration not stated)
T/C (dose: 1.25 mg/kg/injection, schedule: Q01DX009 (ip), vehicle: saline): 109 % of control

C1CC2CCC3CCCC4CCC(C1)C2C34 (configuration not stated)
T/C (dose: 3.13 mg/kg/injection, schedule: Q01DX009 (ip), vehicle: saline with Tween-80): 95 % of control
T/C (dose: 6.25 mg/kg/injection, schedule: Q01DX009 (ip), vehicle: saline with Tween-80): 89 % of control

Oc1cc(Br)ccc1C=Nc1ccc(N2CCCCC2)cc1
T/C [4]: 106 % of control
T/C [6]: 93 % of control
T/C [5]: 93 % of control

COc1cc2c(cc1OC)C(OC)N(C)c1c-2ccc2cc3c(cc12)OCO3 (configuration not stated)
T/C [1]: 122 % of control

O=C(O)c1[nH]c(=O)[nH]c(=O)c1N1CCCCC1
T/C (dose: 25.0 mg/kg/injection, schedule: Q04DX003 (ip), vehicle: Klucel (hydroxypropylcellulose) (HPC)): 110 % of control
T/C (dose: 50.0 mg/kg/injection, schedule: Q04DX003 (ip), vehicle: Klucel (hydroxypropylcellulose) (HPC)): 86 % of control

CCC(C(C)N1CC(=O)NC(=O)C1)N1CC(=O)NC(=O)C1 (configuration not stated)
T/C (dose: 0.06 mg/kg/injection, schedule: Q01DX009 (ip), vehicle: Klucel (hydroxypropylcellulose) (HPC)): 107 % of control
T/C (dose: 0.13 mg/kg/injection, schedule: Q01DX009 (ip), vehicle: Klucel (hydroxypropylcellulose) (HPC)): 108 % of control
T/C (dose: 0.25 mg/kg/injection, schedule: Q01DX009 (ip), vehicle: Klucel (hydroxypropylcellulose) (HPC)): 109 % of control and 124 % of control
T/C (dose: 0.25 mg/kg/injection, schedule: Q04DX003 (ip), vehicle: Klucel (hydroxypropylcellulose) (HPC)): 105 % of control
T/C (dose: 0.5 mg/kg/injection, schedule: Q01DX009 (ip), vehicle: Klucel (hydroxypropylcellulose) (HPC)): 120 % of control
T/C (dose: 0.5 mg/kg/injection, schedule: Q04DX003 (ip), vehicle: Klucel (hydroxypropylcellulose) (HPC)): 114 % of control
T/C (dose: 1.0 mg/kg/injection, schedule: Q04DX003 (ip), vehicle: Klucel (hydroxypropylcellulose) (HPC)): 115 % of control and 121 % of control
T/C (dose: 8.0 mg/kg/injection, schedule: Q04DX003 (ip), vehicle: Klucel (hydroxypropylcellulose) (HPC)): 156 % of control

CC(=O)OCC1OC(OC(C)=O)C(NC(=O)N(CCCl)N=O)C(OC(C)=O)C1OC(C)=O (configuration not stated)
T/C (dose: 0.75 mg/kg/injection, schedule: Q01DX009 (ip), vehicle: Klucel (hydroxypropylcellulose) (HPC)): 162 % of control
T/C (dose: 1.0 mg/kg/injection, schedule: Q01DX009 (ip), vehicle: Klucel (hydroxypropylcellulose) (HPC)): 152 % of control
T/C (dose: 1.5 mg/kg/injection, schedule: Q01DX009 (ip), vehicle: Klucel (hydroxypropylcellulose) (HPC)): 180 % of control
T/C (dose: 2.0 mg/kg/injection, schedule: Q01DX009 (ip), vehicle: Klucel (hydroxypropylcellulose) (HPC)): 188 % of control and 287 % of control
T/C (dose: 3.0 mg/kg/injection, schedule: Q01DX009 (ip), vehicle: Klucel (hydroxypropylcellulose) (HPC)): 208 % of control
T/C (dose: 4.0 mg/kg/injection, schedule: Q01DX009 (ip), vehicle: Klucel (hydroxypropylcellulose) (HPC)): 232 % of control
